According to ChEMBL document CHEMBL3396995, “Synthesis and biological evaluation of novel pyrrolidine acid analogs as potent dual PPARα/γ agonists” (Bioorg Med Chem Lett, 2015):

Tests used:
[1] = molecular target: T1, Peroxisome proliferator-activated receptor gamma (Homo sapiens, UniProt P37231); experiment: Agonist activity at GAL4 tagged human PPARgamma ligand binding domain expressed in HEK293 cells by luciferase reporter gene assay; type: cell-based
T1 sequence (P37231 whole entry): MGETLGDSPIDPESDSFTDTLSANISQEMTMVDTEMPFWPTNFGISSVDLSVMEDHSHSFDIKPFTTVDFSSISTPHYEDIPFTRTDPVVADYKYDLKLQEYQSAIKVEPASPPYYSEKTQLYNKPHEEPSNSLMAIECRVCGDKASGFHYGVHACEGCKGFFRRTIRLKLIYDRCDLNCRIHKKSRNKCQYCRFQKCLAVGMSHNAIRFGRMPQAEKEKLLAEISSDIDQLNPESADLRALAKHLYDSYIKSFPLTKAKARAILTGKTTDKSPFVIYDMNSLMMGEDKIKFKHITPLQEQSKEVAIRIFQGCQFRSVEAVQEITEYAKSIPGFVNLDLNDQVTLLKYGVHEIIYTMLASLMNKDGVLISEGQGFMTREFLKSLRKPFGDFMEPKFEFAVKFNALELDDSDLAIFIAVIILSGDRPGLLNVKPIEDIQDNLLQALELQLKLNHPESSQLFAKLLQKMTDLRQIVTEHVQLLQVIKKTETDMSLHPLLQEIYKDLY

[2] = molecular target: T2, Peroxisome proliferator-activated receptor alpha (Homo sapiens, UniProt Q07869); experiment: Agonist activity at GAL4 tagged human PPARalpha ligand binding domain expressed in HEK293 cells by luciferase reporter gene assay; type: cell-based
T2 sequence (Q07869 whole entry): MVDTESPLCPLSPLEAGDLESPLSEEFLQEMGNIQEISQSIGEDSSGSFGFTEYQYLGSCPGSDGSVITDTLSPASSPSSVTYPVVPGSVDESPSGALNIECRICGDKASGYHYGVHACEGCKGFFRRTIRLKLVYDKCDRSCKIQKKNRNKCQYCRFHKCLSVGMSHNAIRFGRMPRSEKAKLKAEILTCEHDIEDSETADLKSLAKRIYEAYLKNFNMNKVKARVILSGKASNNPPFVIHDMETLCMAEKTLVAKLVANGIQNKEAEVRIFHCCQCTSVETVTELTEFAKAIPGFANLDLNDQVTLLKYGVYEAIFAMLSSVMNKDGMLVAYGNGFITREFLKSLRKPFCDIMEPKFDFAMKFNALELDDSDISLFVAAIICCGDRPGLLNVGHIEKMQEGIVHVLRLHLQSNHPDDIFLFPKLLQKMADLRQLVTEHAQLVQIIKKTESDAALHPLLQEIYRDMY

[3] = molecular target: T2, Peroxisome proliferator-activated receptor alpha; experiment: Binding affinity to PPARalpha (unknown origin) using fluorescein-tagged dual PPARalpha/gamma activator by homogeneous fluorescence polarization binding assay
[4] = molecular target: T1, Peroxisome proliferator-activated receptor gamma
Description: Binding affinity to PPARgamma (unknown origin) using fluorescein-tagged dual PPARalpha/gamma activator by homogeneous fluorescence polarization binding assay

Structure (SMILES) | EC50 [1] [nM] | EC50 ([2]; hek293) | IC50 [3] [nM] | EC50 ([2]; read-out: EC50) [nM] | IC50 [4] [nM]
COc1ccc(OC(=O)N2[C@H](C(=O)O)CC[C@H]2c2ccc(OCCc3nc(-c4ccccc4)oc3C)cc2)cc1 | 50 | Not Active |  |  | 
CCOC(=O)N1C[C@@H](Cc2cccc(OCCc3nc(-c4ccccc4)oc3C)c2)[C@@H](C(=O)O)C1 | 9 |  | 260 | 3 | 
CCOC(=O)N1C[C@H](Cc2cccc(OCCc3nc(-c4ccccc4)oc3C)c2)[C@H](C(=O)O)C1 | > 10000 |  | > 10000 | 10900 | 
Cc1oc(-c2ccccc2)nc1CCOc1cccc(C[C@@H]2CN(C(=O)Oc3ccccc3)C[C@@H]2C(=O)O)c1 | 2000 |  | 70 | 4 | 490
Cc1oc(-c2ccccc2)nc1CCOc1cccc(C[C@H]2CN(C(=O)Oc3ccccc3)C[C@H]2C(=O)O)c1 | 13300 |  | 660 | 950 | 590
Cc1oc(-c2ccccc2)nc1CCOc1cccc(C[C@@H]2CN(c3ccccc3)C[C@@H]2C(=O)O)c1 | 3440 |  | 70 | 50 | 80
Cc1oc(-c2ccccc2)nc1CCOc1cccc(C[C@H]2CN(c3ccccc3)C[C@H]2C(=O)O)c1 | > 10000 |  | 320 | 680 | 140
Cc1oc(-c2ccccc2)nc1CCOc1cccc(C[C@@H]2CN(c3nccc(C(F)(F)F)n3)C[C@@H]2C(=O)O)c1 | 2500 |  | 20 | 14 | 40
Cc1oc(-c2ccccc2)nc1CCOc1cccc(C[C@H]2CN(c3nccc(C(F)(F)F)n3)C[C@H]2C(=O)O)c1 | > 10000 |  | 1120 | > 10000 | 110
Cc1oc(-c2ccccc2)nc1CCOc1ccc(C[C@H]2CN(c3nccc(C(F)(F)F)n3)C[C@H]2C(=O)O)cc1 | > 10000 |  | > 10000 | > 10000 | 1530
Cc1oc(-c2ccccc2)nc1CCOc1ccc(C[C@H]2CN(c3nccc(C(F)(F)F)n3)C[C@@H]2C(=O)O)cc1 | > 30000 |  | 1120 | 1000 | 3570
Cc1oc(-c2ccccc2)nc1CCOc1ccc(C[C@@H]2CN(c3nccc(C(F)(F)F)n3)C[C@H]2C(=O)O)cc1 | > 30000 |  | > 50000 | 4410 | 1160
CCOC(=O)N1C[C@@H](Cc2cccc(OCCc3nc(-c4ccccc4)oc3C)c2)[C@@H](CC(=O)O)C1 | > 10000 |  | 5550 | 2870 | 
Cc1oc(-c2ccccc2)nc1CCOc1ccc(C[C@@H]2CN(c3nccc(C(F)(F)F)n3)C[C@@H]2C(=O)O)cc1 (racemic) | 50 |  | 740 | 30 | 30
CCOC(=O)N1C[C@H](C(=O)O)[C@H](c2cccc(OCCc3nc(-c4ccccc4)oc3C)c2)C1 (racemic) | 24000 |  | > 10000 | 20000 | > 10000
Cc1oc(-c2ccccc2)nc1CCOc1cccc([C@@H]2CN(C(=O)Oc3ccccc3)C[C@@H]2C(=O)O)c1 (racemic) | 5650 |  | > 10000 | 1650 | > 10000
CCOC(=O)N1C[C@H](C(=O)O)[C@H](c2ccc(OCCc3nc(-c4ccccc4)oc3C)cc2)C1 (racemic) | > 32000 |  | > 10000 | > 15000 | > 10000
Cc1oc(-c2ccccc2)nc1CCOc1ccc([C@@H]2CN(C(=O)Oc3ccccc3)C[C@@H]2C(=O)O)cc1 (racemic) | 4180 |  | > 10000 | > 15000 | 4470
CCOC(=O)N1C[C@H](C(=O)O)[C@@H](c2ccc(OCCc3nc(-c4ccccc4)oc3C)cc2)C1 (racemic) | > 32000 |  | > 10000 | > 15000 | > 10000
Cc1oc(-c2ccccc2)nc1CCOc1ccc([C@H]2CN(C(=O)Oc3ccccc3)C[C@@H]2C(=O)O)cc1 (racemic) | 10 |  | 2860 | 2580 | 5860

Structure (SMILES) | EC50 [1] [nM] | EC50 ([2]; hek293) | IC50 [3] [nM] | EC50 ([2]; read-out: EC50) [nM] | IC50 [4] [nM]
CCOC(=O)N1C[C@H](CC(=O)O)[C@H](c2cccc(OCCc3nc(-c4ccccc4)oc3C)c2)C1 (racemic) | 20 |  | 990 | 1130 | 910
Cc1oc(-c2ccccc2)nc1CCOc1cccc([C@@H]2CN(C(=O)Oc3ccccc3)C[C@@H]2CC(=O)O)c1 (racemic) | 4800 |  | 4020 | 3550 | 240
CCOC(=O)N1C[C@H](CC(=O)O)[C@@H](c2cccc(OCCc3nc(-c4ccccc4)oc3C)c2)C1 (racemic) | 9680 |  | > 10000 | 8100 | 5460
Cc1oc(-c2ccccc2)nc1CCOc1cccc([C@H]2CN(C(=O)Oc3ccccc3)C[C@@H]2CC(=O)O)c1 (racemic) | 14600 |  | > 10000 | 11700 | 1820
CCOC(=O)N1C[C@H](CC(=O)O)[C@H](c2ccc(OCCc3nc(-c4ccccc4)oc3C)cc2)C1 (racemic) |  |  | > 10000 |  | > 10000
Cc1oc(-c2ccccc2)nc1CCOc1ccc([C@@H]2CN(C(=O)Oc3ccccc3)C[C@@H]2CC(=O)O)cc1 (racemic) | 4180 |  | > 15000 | > 15000 | 8310
CCOC(=O)N1C[C@@H](Cc2cccc(OCCc3nc(-c4ccccc4)oc3C)c2)[C@@H](C(=O)O)C1 (racemic) | 750 |  | 170 | 10 | 
Cc1oc(-c2ccccc2)nc1CCOc1cccc(C[C@@H]2CN(C(=O)Oc3ccccc3)C[C@@H]2C(=O)O)c1 (racemic) | 1250 |  | 220 | 10 | 1330
CCOC(=O)N1C[C@H](Cc2cccc(OCCc3nc(-c4ccccc4)oc3C)c2)[C@@H](C(=O)O)C1 (racemic) | 2850 |  | 2120 | 150 | 
Cc1oc(-c2ccccc2)nc1CCOc1cccc(C[C@H]2CN(C(=O)Oc3ccccc3)C[C@@H]2C(=O)O)c1 (racemic) | 6170 |  | 3090 | 2590 | 3630
CCOC(=O)N1C[C@@H](Cc2ccc(OCCc3nc(-c4ccccc4)oc3C)cc2)[C@@H](C(=O)O)C1 (racemic) | 300 |  | 2020 | 6 | 2680
Cc1oc(-c2ccccc2)nc1CCOc1cccc(C[C@@H]2CN(c3ccccc3)C[C@@H]2C(=O)O)c1 (racemic) | 3410 |  | 40 | 20 | 220
Cc1oc(-c2ccccc2)nc1CCOc1ccc(C[C@@H]2CN(c3ncccn3)C[C@@H]2C(=O)O)cc1 (racemic) | 1060 |  | > 10000 | 2910 | 2040
Cc1ccnc(N2C[C@@H](Cc3ccc(OCCc4nc(-c5ccccc5)oc4C)cc3)[C@@H](C(=O)O)C2)n1 (racemic) | 630 |  | 3980 | 170 | 450
Cc1oc(-c2ccccc2)nc1CCOc1ccc(C[C@@H]2CN(c3nc4ccccc4o3)C[C@@H]2C(=O)O)cc1 (racemic) | 2080 |  | 2190 | 2480 | 590
Cc1oc(-c2ccccc2)nc1CCOc1ccc(C[C@@H]2CN(c3nc(C(F)(F)F)co3)C[C@@H]2C(=O)O)cc1 (racemic) | > 30000 |  | 5010 | 1470 | 50
CCOC(=O)N1C[C@@H](CCc2cccc(OCCc3nc(-c4ccccc4)oc3C)c2)[C@@H](C(=O)O)C1 (racemic) | 710 |  | 2690 | 200 | 490
Cc1oc(-c2ccccc2)nc1CCOc1cccc(CC[C@@H]2CN(C(=O)Oc3ccccc3)C[C@@H]2C(=O)O)c1 (racemic) | 630 |  | 1060 | 8 | 210
Cc1oc(-c2ccccc2)nc1CCOc1cccc(CC[C@H]2CN(C(=O)Oc3ccccc3)C[C@@H]2C(=O)O)c1 (racemic) | 1170 |  | > 10000 | 2600 | 520
CCOC(=O)N1C[C@H](CC(=O)O)[C@@H](Cc2cccc(OCCc3nc(-c4ccccc4)oc3C)c2)C1 (racemic) | > 10000 |  | 2120 | 6 | 
